How the values were obtained:
[1] = healthy volunteers; cited from earlier work
[2] = tested on: DNAM1, NKP30, NKP44, NKP46, NKG2D, CD16, Fas, FasL; experiment: Immunophenotype of transduced NK cells (NK receptors, multiparameter flow cytometry); type: cell-based, human; details: rimiducid administration; data not shown
Excerpt: FIGS. 18A-18E Phenotype of iMC transduced NK cells. […] MFI or the percentages of positive cells were normalized according the average value of non-transduced NK cells. […] Two-way ANOVAs were used to compare groups. P<0.0001. […] Transgene expression as indicated by CD19 positive percentage. Representative flow plots are shown in FIG. 18D and dot plots for N=4 in FIG. 18E. Paired t tests were used to compare groups. **p<0.01.
Transduced NKs or T cells were stained with anti-CD56-APCcy7 (NK) or anti-CD3-Percep.Cy5 (T) and anti-CD19-BV421 for iMC or iRC9 transgene expression. For CAR-transduced cells, anti-CD34 QBEnd-10-PE (Abnova) was used to determine transduction efficiency. […] All antibodies were purchased from Biolegend except otherwise stated. Flow cytometry was performed using NovoCyte flow cytometer and the data were analyzed using ACEA NovoExpress software (ACEA Biosciences Inc, San Diego, CA).
NK cell activating receptors are essential for NK cell activation and recognition of targets. Upon infection or malignant transformation, these ligands typically upregulate and activate NK cells for specific attack and elimination of target cells. […]

[3] = tested on: IFN-γ; experiment: IFN-γ ELISA of supernatant, co-culture with k562; type: cell-based, human; details: rimiducid 0-100 nM
[4] = tested on: iRC9.IL15.iMC-transduced NKs; experiment: Safety switch activation in vivo in NSG mice (BLI, spleen flow cytometry); set-up: species or system mouse
Description: (§1) FIGS. 25A-25D: Safety switch in NKs. […] FIG. 25A: Annexin V staining was assessed by flow cytometry analysis. FIG. 25B: Temsirolimus at various concentration was administrated for 24 hrs. 7AAD staining was assessed by flow cytometry. Cells were first gated as CD56+CD19+ for transduced cells, CD56+ for NT non-transduced NK cells. […] 4 Four mice were applied administered 1 mg/kg temsirolimus i.p., whereas 5 mice were administrated with same volume vehicle. Before injection and 24 hrs. later, firefly luciferase BLI was determined for to measure NK presence in vivo (FIG. 25E). Mice were then euthanized. Spleens were analyzed for the presence of NK cells by flow cytometry. NK cells were identified as hCD45+mCD45− populations (FIG. 25F). Transduced NKcells were identified as hCD45+mCD45-hCD56+hCD19+ populations (FIG. 25G). Student t test was used to do comparisonscompare groups. ***P<0.001.
To prevent potential uncontrolled expansion of the gene modified NK cells, as well as associated cytokine release syndrome (CRS) and GvHD, a suicide gene iRC9 was incorporated into the constructs. […] The suicide gene was also effective in vivo. Mice engrafted with THP-1 tumor received iRC9.IL15.iMC-transduced NKs labeled with oNL […] luciferase. Mice were then either treated with the dimerizer temsirolimus or vehicle control.

[5] = tested on: transduced NK cells; experiment: Safety switch activation in NK cells in vitro (Annexin V, 7AAD, CD19 loss); type: cell-based, human; details: 10 nM temsirolimus
Description: as §1
FIG. 14—Caspase-9 activation ablates DS NK cells. NK cells from three separate donors were transduced with recombinant retroviruses 1664 (iMC+iRC9) or 1531 (iC9+iRMC) and expanded. […] After 24 hours NK cells were assayed for presence of the CD19 marker cotransduced with the switches. […] MFI=Mean fluorescence intensity of CD19 in flow cytometry, indicating a proportional growth advantage of highly expressing cells. […]

SMILES	safety [1]	surface NK cell receptor expression [2]	IFN-γ production at the co-culture supernatant [3]	frequency of gene modified NK cells in the spleens ([4]; temsirolimus treated mice)	BLI signal of NK cells in vivo ([4]; within 24 hrs, temsirolimus 1 mg/kg i.p. vs vehicle)	apoptosis of transduced NK cells [5]	viability of non-transduced NK cells [5]
CC[C@H](C(=O)N1CCCC[C@H]1C(=O)O[C@H](CCc1ccc(OC)c(OC)c1)c1cccc(OCC(=O)NCCNC(=O)COc2cccc([C@@H](CCc3ccc(OC)c(OC)c3)OC(=O)[C@@H]3CCCCN3C(=O)[C@@H](CC)c3cc(OC)c(OC)c(OC)c3)c2)c1)c1cc(OC)c(OC)c(OC)c1 (relative stereo) [Rimiducid, 2-Piperidinecarboxylic acid, 1-[(2S)-1-oxo-2-(3,4,5-trimethoxyphenyl)butyl]-, 1,2-ethanediyIbis[imino(2-oxo-2,1-ethanediyl)oxy-3,1-phenylene[(1R)-3-(3,4-dimethoxyphenyl)propylidene]] ester, [2S-[1(R*),2R*[S*[S*[1(R*),2R*]]]]]-(9Cl)]	proven safe in healthy volunteers	did not increase surface NK cell receptor expression	dramatically increased IFN-γ production at the co-culture supernatant in a dose-dependent manner	–	–	–	–
CO[C@H]1C[C@@H]2CC[C@@H](C)[C@@](O)(O2)C(=O)C(=O)N2CCCC[C@H]2C(=O)O[C@H]([C@H](C)C[C@@H]2CC[C@@H](OC(=O)C(C)(CO)CO)[C@H](OC)C2)CC(=O)[C@H](C)/C=C(\C)[C@@H](O)[C@@H](OC)C(=O)[C@H](C)C[C@H](C)/C=C/C=C/C=C/1C [temsirolimus]	–	–	–	significantly reduced	dramatically reduced	induced apoptosis as early as 4 hrs	no effect

Source: patent US12410231B2, “Natural killer cell products and methods” (Board of Regents of The University of Texas System, priority 2018, dated 2025)
